From US11529302B2, “Composition, artificial nail composition, nail decoration material, artificial nail, stored container, image forming apparatus, and image forming method” (RICOH COMPANY, LTD., priority 2018, dated 2022) come the findings set out here.

A short description of this series: Solubility of polymerization initiator in the acrylamide compound having an ester structure. The class given is physicochemical.

Consider `Cc1cc(C)c(C(=O)P(=O)(C(=O)c2c(C)cc(C)cc2C)c2ccccc2)c(C)c1` [B2-1, Bis(2,4,6-trimethylbenzoyl) phenyl phosphine oxide], for which the “solubility in the acrylamide compound having an ester structure” value was “poor solubility”.
